Some test systems named below: ACHN; EKVX; HCT-116; HOP-92; K562; LOX IMVI; MCF7; MDA-N; NCI-H460; NCI/ADR-RES; OVCAR-3; OVCAR-8; PC-3; RPMI-8226; SF-539; SK-MEL-28; SK-MEL-5; TK-10; UACC-257; OVCAR-4.
Experiment in all cases: growth of human tumour cells (NCI), 48 h

Consider 11 compounds from ChEMBL document CHEMBL1201862, “PubChem BioAssay data set” (2004).

SMILES strings stand for the structures.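 48-hour exposure; five concentrations; linearly interpolated endpoints. Here, GI50 denotes the concentration required for 50% inhibition of growth.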 Active and inactive are the calls of the source. Rule as the data show it: active = GI50 up to about 1.1 µM and inactive = higher. Where only a bound is given, the exact number is not on record here.

Regarding `O=C(Nc1ccccc1)c1cc(S(=O)(=O)n2ccnc2O)c(S)cc1Cl`, the GI50 with ACHN, in the assay with EKVX, with HCT-116, in the assay on HOP-92, in the assay with K562 and in the assay with LOX IMVI was > 100 µM (inactive) each time. Further, the GI50 in the assay on MCF7, in the assay with MDA-N, in the assay on NCI-H460, with NCI/ADR-RES, in the assay on OVCAR-3 and in the assay with OVCAR-8 was > 100 µM (inactive) each time. The GI50 with PC-3, in the assay on RPMI-8226, with SF-539, in the assay with SK-MEL-28, with SK-MEL-5 and in the assay with TK-10 was > 100 µM (inactive) each time. In addition, the GI50 with UACC-257 is > 100 µM (inactive).
With `CCOC(=O)C12OC(OCC)(CC1(OCC)OCC)C1(CC1)C2=O` (stereo not drawn), the GI50 with ACHN, in the assay with EKVX, with HCT-116, in the assay with HOP-92, in the assay on K562 and with LOX IMVI was > 100 µM (inactive) each time. Also, the GI50 in the assay on MCF7, in the assay with MDA-N, in the assay with NCI-H460, with NCI/ADR-RES, with OVCAR-3 and in the assay with OVCAR-4 was > 100 µM (inactive) in each case. In addition, the GI50 in the assay on OVCAR-8, in the assay with PC-3, in the assay with SF-539, in the assay with SK-MEL-28, with SK-MEL-5 and with TK-10 was > 100 µM (inactive) each time. Further, the GI50 in the assay on UACC-257 was > 100 µM (inactive).
For the compound `O=C(CCO)OCCCCCC/C=C\CCCCCC/C=C\CCCCCCCCOC(=O)CCO`, the GI50 in the assay on ACHN was 23.9 µM (inactive); in the assay on EKVX it was 18.3 µM (inactive); with HCT-116, 16.3 µM (inactive); with HOP-92, 18.2 µM (inactive); in the assay with K562, 15.8 µM (inactive); with LOX IMVI it was 18.4 µM (inactive). In addition, the GI50 is 15.7 µM (inactive) in the assay on MCF7; 17.8 µM (inactive) in the assay on MDA-N; 17.3 µM (inactive) in the assay with NCI-H460; 17.9 µM (inactive) in the assay on NCI/ADR-RES; 23 µM (inactive) in the assay with OVCAR-3; 25.3 µM (inactive) in the assay with OVCAR-4. Moreover, the GI50 with OVCAR-8 is 18.5 µM (inactive); in the assay with PC-3 it was 17.1 µM (inactive); in the assay with SF-539, > 100 µM (inactive); in the assay with SK-MEL-28, 19.5 µM (inactive); with SK-MEL-5, > 100 µM (inactive); in the assay on TK-10, 17.7 µM (inactive). The GI50 with UACC-257 is 17.2 µM (inactive).
For `CCOC(=O)c1[nH]cc(C)c1-c1ccn(-c2ccccc2)c1`, the GI50 in the assay on ACHN is 50.2 µM (inactive); in the assay on EKVX it was 27 µM (inactive); in the assay on HCT-116, 42.7 µM (inactive); in the assay with HOP-92 it was 21.5 µM (inactive); in the assay on K562, 21.1 µM (inactive); with LOX IMVI it was 41.8 µM (inactive). Also, the GI50 with MCF7 is 61 µM (inactive); with MDA-N, 35.6 µM (inactive); in the assay on NCI-H460, 38.6 µM (inactive); in the assay with NCI/ADR-RES, 36.2 µM (inactive); in the assay with OVCAR-3, 19.6 µM (inactive); in the assay with OVCAR-4, 41.9 µM (inactive). The GI50 is 38.3 µM (inactive) in the assay on OVCAR-8; 30.6 µM (inactive) with PC-3; > 100 µM (inactive) in the assay on SF-539; 96.2 µM (inactive) with SK-MEL-28; 21.7 µM (inactive) with SK-MEL-5; 27.5 µM (inactive) in the assay on TK-10. Moreover, the GI50 in the assay on UACC-257 is 35.3 µM (inactive).
As for `CNC1=C(C)C(=O)C(O)=C([C@H](C)CCC=C(C)C)C1=O`, the GI50 in the assay on ACHN is 11.2 µM (inactive); with EKVX it was 2.33 µM (inactive); with HCT-116, 33.9 µM (inactive); in the assay on HOP-92, 33.1 µM (inactive); with K562 it was 29 µM (inactive); with LOX IMVI, 14.7 µM (inactive). In addition, the GI50 is 37.2 µM (inactive) in the assay with MCF7; 29.6 µM (inactive) with MDA-N; 10.5 µM (inactive) in the assay with NCI-H460; 5.21 µM (inactive) with NCI/ADR-RES; 11.7 µM (inactive) in the assay with OVCAR-3; 11.7 µM (inactive) in the assay on OVCAR-4. For the same compound, the GI50 in the assay with OVCAR-8 is 10.7 µM (inactive); with PC-3, 22.6 µM (inactive); in the assay on RPMI-8226 it was 2.94 µM (inactive); with SK-MEL-28 it was 31.4 µM (inactive); with SK-MEL-5 it was 14.4 µM (inactive); in the assay with TK-10, 31 µM (inactive). Also, the GI50 with UACC-257 was 32.7 µM (inactive).
`Cc1sc2nc(-c3ccc([N+](=O)[O-])cc3)c(/C=N/N=C(N)N)n2c1C`: the GI50 with ACHN is 1.33 µM (inactive); with EKVX it was 1.17 µM (inactive); in the assay with HCT-116 it was 0.173 µM (active); in the assay on HOP-92, 1.33 µM (inactive); with K562, 0.202 µM (active); with LOX IMVI, 0.398 µM (active). Also, the GI50 is 0.555 µM (active) in the assay with MCF7; 0.373 µM (active) in the assay on MDA-N; 1.75 µM (inactive) in the assay with NCI-H460; 2.76 µM (inactive) in the assay with NCI/ADR-RES; 1.75 µM (inactive) in the assay with OVCAR-3; 0.53 µM (active) in the assay on OVCAR-8. Further, the GI50 was 1.28 µM (inactive) in the assay on PC-3; 0.468 µM (active) with RPMI-8226; 1.72 µM (inactive) in the assay on SF-539; 0.361 µM (active) in the assay with SK-MEL-28; 1.38 µM (inactive) in the assay on SK-MEL-5; 1.5 µM (inactive) in the assay with TK-10. The GI50 in the assay on UACC-257 is 1.46 µM (inactive).
For the compound `CC(=O)Oc1c(C)c2c(c3ncccc13)OC(C)C2` (stereo not drawn), the GI50 in the assay on ACHN was 11.8 µM (inactive); with EKVX it was 17.1 µM (inactive); in the assay on HCT-116 it was 14.9 µM (inactive); in the assay on HOP-92 it was 14.7 µM (inactive); in the assay on K562, 10.2 µM (inactive); in the assay on MCF7, 13.3 µM (inactive). In addition, the GI50 in the assay on MDA-N is 11 µM (inactive); with NCI-H460 it was 10.8 µM (inactive); with NCI/ADR-RES, 15.6 µM (inactive); in the assay on OVCAR-3 it was 32.4 µM (inactive); with OVCAR-4, 16.3 µM (inactive); in the assay on OVCAR-8 it was 14.5 µM (inactive). Further, the GI50 with PC-3 was 26 µM (inactive); in the assay on RPMI-8226, 16.7 µM (inactive); in the assay on SF-539, 15 µM (inactive); with SK-MEL-28, 13.9 µM (inactive); with SK-MEL-5, 14.5 µM (inactive); in the assay on TK-10, 22 µM (inactive). The GI50 with UACC-257 was 14.8 µM (inactive).
As for `c1ccc(/C(=N/Nc2ccccn2)c2ncccn2)cc1`, the GI50 is 0.112 µM (active) with ACHN; 0.292 µM (active) in the assay on EKVX; 0.524 µM (active) in the assay with HCT-116; 2.96 µM (inactive) in the assay with HOP-92; 0.121 µM (active) with K562; 0.175 µM (active) with MCF7. The GI50 is 16.5 µM (inactive) in the assay with MDA-N; 0.906 µM (active) with NCI-H460; 1.43 µM (inactive) in the assay on NCI/ADR-RES; 0.386 µM (active) with OVCAR-3; 1.28 µM (inactive) with OVCAR-4; 0.369 µM (active) in the assay on OVCAR-8. The GI50 in the assay with PC-3 was 9.16 µM (inactive); in the assay on RPMI-8226 it was 1.39 µM (inactive); in the assay on SF-539 it was 3.52 µM (inactive); in the assay on SK-MEL-28, 3.93 µM (inactive); with SK-MEL-5, 0.745 µM (active); with UACC-257, 0.729 µM (active).
Turning to `O=[N+]([O-])c1ccc(/C=N\N=c2/ccc([N+](=O)[O-])c[nH]2)cc1`, the GI50 with ACHN, in the assay with EKVX, with HCT-116, with HOP-92, with K562 and with MCF7 was > 100 µM (inactive) each time. Moreover, the GI50 in the assay with MDA-N, in the assay with NCI-H460, in the assay with NCI/ADR-RES, in the assay on OVCAR-3, in the assay on OVCAR-4 and in the assay on OVCAR-8 was > 100 µM (inactive) each time. The GI50 was > 100 µM (inactive) in the assay with PC-3; > 100 µM (inactive) in the assay on RPMI-8226; 32.6 µM (inactive) in the assay with SF-539; > 100 µM (inactive) in the assay on SK-MEL-28; > 100 µM (inactive) in the assay on SK-MEL-5; > 100 µM (inactive) in the assay on TK-10. In the assay with UACC-257, the GI50 is > 100 µM (inactive).
As to `COC(=O)N1CC[C@@H]2CCC=C(c3cccc4c3OCO4)[C@@H]21`, the GI50 in the assay with ACHN was > 100 µM (inactive); with EKVX, 79.4 µM (inactive); in the assay with HCT-116, > 100 µM (inactive); in the assay on HOP-92, 22 µM (inactive); in the assay with K562 it was 42.8 µM (inactive); with LOX IMVI it was > 100 µM (inactive). The GI50 with MCF7 was > 100 µM (inactive); in the assay with MDA-N, > 100 µM (inactive); in the assay with NCI-H460, 60 µM (inactive); in the assay on NCI/ADR-RES it was 54.2 µM (inactive); in the assay with OVCAR-3, > 100 µM (inactive); in the assay on OVCAR-4, 45.4 µM (inactive). The GI50 in the assay with OVCAR-8 was > 100 µM (inactive); in the assay with PC-3, 54.2 µM (inactive); with SF-539, > 100 µM (inactive); in the assay on SK-MEL-28, > 100 µM (inactive); in the assay on SK-MEL-5, 61.4 µM (inactive); with TK-10, 82.8 µM (inactive). Also, the GI50 in the assay on UACC-257 is 78.5 µM (inactive).
As to `CCN1C(NN)=NS(=O)(=O)c2ccccc21`, the GI50 in the assay on ACHN, in the assay on EKVX, in the assay with HCT-116, in the assay with HOP-92, in the assay with K562 and in the assay with LOX IMVI was > 100 µM (inactive) in each case. The GI50 in the assay with MCF7, in the assay on MDA-N, with NCI-H460, in the assay on NCI/ADR-RES, in the assay on OVCAR-3 and in the assay with OVCAR-4 was > 100 µM (inactive) in each case. The GI50 with OVCAR-8, in the assay on PC-3, with SF-539, with SK-MEL-28, in the assay with SK-MEL-5 and in the assay with TK-10 was > 100 µM (inactive) throughout. In addition, the GI50 in the assay with UACC-257 is > 100 µM (inactive).
